Earlier results as cited in patent publication US12127976B2, “Eye-mountable therapeutic devices, and associated systems and methods” (Twenty Twenty Therapeutics LLC, priority 2018, dated 2024).
Counter-ions that a name gives are not always drawn.

Legend:
[1] = after topical administration; formulated as salts
[2] = in aqueous humor

SMILES	time at which the maximum effect can be detected [1]	estimated half-life [2] [h]
CC(C)NCC(O)COc1ccc(CCOCC2CC2)cc1 (stereo not drawn) [betaxolol]	about 2 hours	–
CC(C)(C)NC[C@H](O)COc1nsnc1N1CCOCC1 [timolol maleate]	about 2 hours	–
O=C(O)CCC/C=C\C[C@@H]1[C@@H](CC[C@@H](O)CCc2ccccc2)[C@H](O)C[C@@H]1O [latanoprost acid]	–	~2.8
